Assay [1] has as its system mice. The assay is described as follows: mouse light/dark box habituation test. Format: in vivo. To be noted: 0.25 mg/kg. The protocol:
(§1) A test carried out using the mouse light/dark box and the rat T-maze reinforced alternation task.
On repeated exposure to the light/dark box mice habituate by moving more rapidly from the light to the dark side. The habituation occurs over a 4 to 6 day period, with a reduction in latency of movement from about 14 sec to 2 to 4 sec by the 4th day of the test.
The compounds was administered at a dose of 0.00001 mg/kg SC once daily.
The days (1-6) are along the X axis and the time in seconds is along the Y axis (latency white to black) and Day 6 scopolamine was 0.25.
∘ p <0.001 indicates improved habituation, comparison is with 1 day.
* p <0.05 to p <0.001 is improved performance, compared to control.
+ p <0.001 is scopolamine impairment.
Δ p <0.001 is inhibition of scopolamine impairment.

Assay [2] relates to rat. Nature of the assay: rat T-maze reinforced alternation task. The note with it: twice daily 0.25 mg/kg. Format: in vivo. The protocol:
as §1
The X axis is the day and the Y axis is the percent correct responses.
The number of mice tested was six.
⬭ - - - ⬭ is the control vehicle.
⬬ - - - ⬬ is scopolamine at 0.25 mg/kg IP BID.

Take `CN1[C@@H]2C[C@@H](OC(=O)[C@H](CO)c3ccccc3)C[C@H]1[C@@H]1O[C@@H]12` [scopolamine]: the “effect of scopolamine on habituation performance” value in assay [1] is “impairment of performance”. Besides, in assay [2], the “effect of scopolamine on task performance” value is given as “deficit”.

These data come from patent US6492531B1, “Method of treating cognitive disorders” (Warner-Lambert Company, priority 1992, dated 2002).
